From publication PMC3855825 (Molecular and biochemical parasitology, 2012)
pIC50, pKi: −log10 of the molar value. “Also recorded” adds a separate entry of the source. Read-outs that look alike come from different tables or passages of the source.

Columns and labels:
[1] = biological target: T1, TgDHOD-VSSM (Toxoplasma gondii, UniProt Q8MXD1); experiment: Use of electron acceptors and substrate kinetics of TgDHOD-VSSM
T1 sequence (Q8MXD1 178-592): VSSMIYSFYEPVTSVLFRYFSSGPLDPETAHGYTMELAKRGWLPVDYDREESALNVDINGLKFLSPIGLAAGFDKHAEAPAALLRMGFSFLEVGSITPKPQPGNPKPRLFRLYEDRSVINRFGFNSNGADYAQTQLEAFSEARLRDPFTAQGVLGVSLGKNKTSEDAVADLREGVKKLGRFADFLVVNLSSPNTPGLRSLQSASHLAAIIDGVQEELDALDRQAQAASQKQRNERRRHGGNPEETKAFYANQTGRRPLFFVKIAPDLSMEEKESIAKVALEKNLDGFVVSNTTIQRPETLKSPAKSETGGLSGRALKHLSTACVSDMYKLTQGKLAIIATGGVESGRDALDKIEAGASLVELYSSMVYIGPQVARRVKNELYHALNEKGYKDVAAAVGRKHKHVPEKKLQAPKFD

[2] = test system: PfDHOD; settings: read-out: PfDHOD IC50, cited from earlier work
[3] = test system: HsDHOD; settings: read-out: HsDHOD IC50, cited from earlier work
[4] = biological target: TgDHOD (Toxoplasma gondii, UniProt Q8MXD1); experiment: Inhibition of recombinant TgDHOD-VSSM, DCIP reduction assay with QD; settings: for Effect on TgDHOD activity (in words): no concentration stated at the place; for Type of inhibition of TgDHOD (best fit): QD as variable substrate, saturating dihydroorotate, SigmaPlot12 fit; for Inhibition of TgDHOD (in words): inhibitor 1 mM, DCIP reduction assay with QD
[5] = test system: PfDHOD; settings: read-out: Km for quinone, recombinant PfDHOD; cited from earlier work
[6] = test system: HsDHOD; settings: read-out: Km for QD, HsDHOD; cited from earlier work
[7] = test system: Saccharomyces cerevisiae complex III; settings: read-out: IC50 for Saccharomyces cerevisiae complex III; cited from earlier work
[8] = test system: human complex III; settings: read-out: IC50 for human complex III; cited from earlier work
[9] = read-out: TgDHOD activity compared to the control

In the case of `O=C1C(Cl)=CC(=Nc2ccc(O)cc2)C=C1Cl` [DCIP, 2,6 dichlorophenol-indophenol], the “kcat, background activity in the absence of ubiquinone” value ([1]; DCIP as only electron acceptor, 0.1 mM, 1 mM dihydroorotate) was 28.1 ± 0.7 s⁻¹.

For `Cc1cc(Nc2cc(F)c(C(F)(F)F)c(F)c2)n2ncnc2n1` [DSM190, N-(3,5-difluoro-4-(trifluoromethyl)phenyl)-5-methyl-[1,2,4]triazolo[1,5-a]pyrimidin-7-amine], the pIC50 ([2]; ref 16 Gujjar et al., 2011) is given as 6.72, the pIC50 ([3]; ref 16 Gujjar et al., 2011) is given as under 4.52 and the “Effect on TgDHOD activity (in words)” value [4] is given as “poor inhibitor”.

With `O=C(O)/C=C/C(=O)O` [Fumarate] the “Activity as electron acceptor for TgDHOD (in words)” value [1] was “poor electron acceptor; also recorded: negligible activity”.

In the case of `COc1ccccc1-c1ccc(NC(=O)C(C#N)=C(C)O)c(Cl)c1` [MD209, N-(3-chloro-2′-methoxybiphenyl-4-yl)-2-cyano-3-hydroxybut-2-enamide], the pIC50 ([2]; ref 17 Davies et al., 2009) is given as 5.07, the pIC50 ([3]; ref 17 Davies et al., 2009) is given as 6.70 and the pKi [4] is given as 4.74. The “Type of inhibition of TgDHOD (best fit)” value [4] was “partial mixed inhibition”.

In the case of `CC(O)=C(C#N)C(=O)Nc1ccc(-c2cccc(Cl)c2Cl)cc1Cl` [MD249], the pIC50 ([2]; ref 17 Davies et al., 2009) is listed as 5.00, the pIC50 ([3]; ref 17 Davies et al., 2009) is listed as 6.48 and the “Type of inhibition of TgDHOD (best fit)” value [4] is listed as “partial mixed inhibition”.

For `CC1=CC(=O)c2ccccc2C1=O` [Menadione, 2-methyl-1,4-naphthoquinone], the Km [5] is given as 55 to 115 µM.

For `COC1=C(OC)C(=O)C(C)=CC1=O` [Q0, 2,3-dimethoxy-5-methyl-1,4-benzoquinone], the Km [5] is listed as 55 to 115 µM.

In the case of `CCCCCCCCCCC1=C(C)C(=O)C(OC)=C(OC)C1=O` [QD, 2,3-dimethoxy-5-methyl-6-decyl-1,4-benzoquinone], the Km [6] is listed as 14 µM.

For `O=C(CC(=O)C(F)(F)F)c1cccs1` [TTFA, 4,4,4-trifluoro-1-(thienyl)-1,3-butanedione], the “Inhibition of TgDHOD (in words)” value [4] was “No significant inhibition” and the “Effect on TgDHOD activity (in words)” value [4] was “not significantly affected; also recorded: no effect”.

In the case of `O=C1C(O)=C([C@H]2CC[C@H](c3ccc(Cl)cc3)CC2)C(=O)c2ccccc21` [atovaquone, trans-2-[4-(chlorophenyl)cyclohexyl]-3-hydroxy-1,4-naphthoquinone], the pIC50 [7] is given as 7.40, the pIC50 [8] is given as 6.40 and the “Effect on TgDHOD activity (in words)” value [4] is given as “not significantly affected”. For the same compound, the “Effect on TgDHOD activity (in words)” value ([4]; listed as Atovaquone) was “little effect” and the remaining activity at 100 µM [4, 9] was 80.6%.

For `Cc1c(-c2ccc(-c3ccccc3F)cc2)nc2ccc(F)cc2c1C(=O)O` [brequinar, 6-fluoro-2-(2′-fluoro-1,1-biphenyl-4-yl)-3-methyl-4-quinoline carboxylic acid], the “Inhibition of TgDHOD (in words)” value [4] was “No significant inhibition” and the “Effect on TgDHOD activity (in words)” value [4] was “not significantly affected; also recorded: not efficient inhibitors”.

For `COc1cc(-c2ccc(Nc3ccccc3C(=O)O)c(OC)c2)ccc1Nc1ccccc1C(=O)O` [redoxal, (2,2′-[3,3′-dimethoxy[1,1′-biphenyl]-4,4′-diyl]diimino)bis-benzoic acid], the “Effect on TgDHOD activity (in words)” value [4] was “not efficient inhibitors”.

In the case of `Cc1cc(-n2c(=O)[nH]c(=O)n(C)c2=O)ccc1Oc1ccc(SC(F)(F)F)cc1` [toltrazuril, 1-(3-methyl-4(4′-trifluoromethylthiophenoxy)phenyl)-3-methyl-1,3,5-triazine-2,4,6-(1H,3H,5H)-trione], the “Effect on TgDHOD activity (in words)” value [4] was “little effect” and the remaining activity at 500 µM [4, 9] was 82.9%.
